Results on three compounds are retold here after ChEMBL document CHEMBL1909046, “DrugMatrix in vitro pharmacology data”.

Chain of Estrogen receptor beta (Q92731 whole entry): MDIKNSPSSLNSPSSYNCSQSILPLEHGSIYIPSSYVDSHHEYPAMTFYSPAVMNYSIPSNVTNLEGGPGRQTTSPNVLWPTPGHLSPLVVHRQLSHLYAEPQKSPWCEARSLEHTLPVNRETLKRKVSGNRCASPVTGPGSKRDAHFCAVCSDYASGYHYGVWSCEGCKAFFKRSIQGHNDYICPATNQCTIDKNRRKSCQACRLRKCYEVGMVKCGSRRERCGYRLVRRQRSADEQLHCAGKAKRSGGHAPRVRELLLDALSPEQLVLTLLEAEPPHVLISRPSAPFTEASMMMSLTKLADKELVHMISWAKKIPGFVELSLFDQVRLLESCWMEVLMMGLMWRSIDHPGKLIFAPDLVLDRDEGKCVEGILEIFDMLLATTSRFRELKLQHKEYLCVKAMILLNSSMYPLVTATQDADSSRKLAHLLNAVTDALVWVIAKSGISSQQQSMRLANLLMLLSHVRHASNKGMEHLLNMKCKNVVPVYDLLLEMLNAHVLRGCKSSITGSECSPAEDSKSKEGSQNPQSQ
Chain of Insulin receptor (P15127 27-759 limits assumed): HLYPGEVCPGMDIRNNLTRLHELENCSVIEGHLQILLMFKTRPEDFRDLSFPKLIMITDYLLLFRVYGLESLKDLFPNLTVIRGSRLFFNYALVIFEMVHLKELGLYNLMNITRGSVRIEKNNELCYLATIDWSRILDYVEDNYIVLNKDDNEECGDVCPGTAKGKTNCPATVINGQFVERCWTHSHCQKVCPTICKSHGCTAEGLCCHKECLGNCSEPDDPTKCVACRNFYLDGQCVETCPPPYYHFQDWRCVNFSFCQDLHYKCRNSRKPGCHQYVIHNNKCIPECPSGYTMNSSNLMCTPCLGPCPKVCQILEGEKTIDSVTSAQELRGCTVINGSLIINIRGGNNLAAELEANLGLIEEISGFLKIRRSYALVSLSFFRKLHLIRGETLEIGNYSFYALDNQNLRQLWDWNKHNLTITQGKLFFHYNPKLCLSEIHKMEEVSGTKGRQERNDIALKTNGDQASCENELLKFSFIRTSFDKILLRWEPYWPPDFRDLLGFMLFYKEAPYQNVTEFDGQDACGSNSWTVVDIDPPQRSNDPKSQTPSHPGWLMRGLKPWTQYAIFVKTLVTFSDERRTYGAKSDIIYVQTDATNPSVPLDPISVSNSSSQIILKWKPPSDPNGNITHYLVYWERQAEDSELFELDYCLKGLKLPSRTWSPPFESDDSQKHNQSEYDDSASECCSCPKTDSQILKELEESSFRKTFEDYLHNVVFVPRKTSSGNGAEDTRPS
Chain of Insulin receptor (P15127 764-1383 limits assumed): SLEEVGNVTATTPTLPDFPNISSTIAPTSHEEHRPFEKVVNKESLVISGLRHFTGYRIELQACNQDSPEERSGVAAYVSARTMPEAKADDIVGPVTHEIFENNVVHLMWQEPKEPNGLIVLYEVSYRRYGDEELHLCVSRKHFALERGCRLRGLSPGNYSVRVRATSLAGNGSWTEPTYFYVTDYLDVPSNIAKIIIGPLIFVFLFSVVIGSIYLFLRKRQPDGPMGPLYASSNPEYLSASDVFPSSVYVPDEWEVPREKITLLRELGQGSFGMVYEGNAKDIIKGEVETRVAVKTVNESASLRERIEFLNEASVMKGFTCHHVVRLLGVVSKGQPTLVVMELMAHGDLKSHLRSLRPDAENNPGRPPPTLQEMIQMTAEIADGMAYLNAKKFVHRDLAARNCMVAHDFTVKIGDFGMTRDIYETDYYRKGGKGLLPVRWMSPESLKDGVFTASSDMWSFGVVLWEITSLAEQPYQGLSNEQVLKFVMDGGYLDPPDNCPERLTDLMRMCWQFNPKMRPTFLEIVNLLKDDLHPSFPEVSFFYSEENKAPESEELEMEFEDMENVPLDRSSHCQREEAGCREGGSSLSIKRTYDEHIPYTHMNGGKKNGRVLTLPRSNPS

System in the first test: not listed separately
Briefly: DRUGMATRIX: ATPase, Na+/K+ enzyme inhibition (substrate: ATP). Type of test: tissue-based, Sus scrofa, Heart. Conditions: Not Active = under 50% inhibition at 10 µM.
Consider `O=C1OC2(c3ccc(O)cc3Oc3cc(O)ccc32)c2ccccc21` [FLUORESCEIN], for which the concentration for half-maximal inhibition (IC50) (as a rule, the concentration at which inhibition is half-maximal) is listed as “Not Active” and the inhibition constant Ki – broadly, the equilibrium dissociation constant of an inhibitor or competing ligand from its target – is recorded as “Not Active”.

The test is the same for the next values; noted with them: Not Active = under 50% inhibition at 10 µM; read-out: IC50.
CISPLATIN: the IC50 was 9.43 µM.

Regarding `Oc1c(Cl)cc(Cl)cc1Sc1cc(Cl)cc(Cl)c1O` [BITHIONOL], the IC50 came out at 5.02 µM.

For a further test, the target named is C-C chemokine receptor type 2 (Homo sapiens, UniProt P41597). Note: in other assays of this panel Not Active means under 50% inhibition at 10 µM.
Chain of C-C chemokine receptor type 2 (P41597 whole entry): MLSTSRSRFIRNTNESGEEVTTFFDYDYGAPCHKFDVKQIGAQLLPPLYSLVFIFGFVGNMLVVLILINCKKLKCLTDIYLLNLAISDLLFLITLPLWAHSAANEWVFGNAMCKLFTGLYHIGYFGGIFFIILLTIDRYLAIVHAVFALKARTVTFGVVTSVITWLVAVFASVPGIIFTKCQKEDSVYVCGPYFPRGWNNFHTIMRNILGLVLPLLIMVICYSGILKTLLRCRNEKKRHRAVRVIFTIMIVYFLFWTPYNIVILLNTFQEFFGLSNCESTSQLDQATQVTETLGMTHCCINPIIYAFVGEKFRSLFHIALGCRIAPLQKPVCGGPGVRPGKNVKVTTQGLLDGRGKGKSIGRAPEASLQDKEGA
Assay: not given
The class given is cell membranes, CHO-K1, Membrane. The conditions noted are these: cho-k1.
For `Oc1c(Cl)cc(Cl)cc1Sc1cc(Cl)cc(Cl)c1O` [BITHIONOL], the concentration for half-maximal inhibition (IC50) result is recorded as “Not Active”.

Regarding `O=C1OC2(c3ccc(O)cc3Oc3cc(O)ccc32)c2ccccc21` [FLUORESCEIN], the 50% inhibitory concentration (IC50) entry is on record as “Not Active”.

Staying with this test, now noted: cho-k1; read-out: IC50.
CISPLATIN: the half-maximal inhibitory concentration (IC50) was 18.1 µM.

Staying with this test, now noted: cho-k1; read-out: Ki.
Consider CISPLATIN, for which the Ki came out at 7.01 µM.

For another test, the target named is T1, C-C chemokine receptor type 4 (Homo sapiens, UniProt P51679). Note: in other assays of this panel Not Active means under 50% inhibition at 10 µM.
T1 sequence (P51679 whole entry): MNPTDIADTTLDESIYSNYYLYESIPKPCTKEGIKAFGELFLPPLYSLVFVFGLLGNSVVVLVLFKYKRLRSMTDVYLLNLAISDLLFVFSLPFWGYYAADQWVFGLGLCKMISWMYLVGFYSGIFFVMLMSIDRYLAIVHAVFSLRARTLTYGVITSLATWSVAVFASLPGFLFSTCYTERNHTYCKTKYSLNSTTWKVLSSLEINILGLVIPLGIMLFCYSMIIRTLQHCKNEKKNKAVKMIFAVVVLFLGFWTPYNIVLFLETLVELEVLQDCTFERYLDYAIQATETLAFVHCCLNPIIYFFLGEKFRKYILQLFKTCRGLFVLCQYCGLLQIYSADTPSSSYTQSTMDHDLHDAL
Assay: not given
The class given is cell membranes, Membrane. Conditions: chem-1.
Regarding CISPLATIN, the IC50 entry is “Not Active” and the Ki result is listed as “Not Active”.

Consider `Oc1c(Cl)cc(Cl)cc1Sc1cc(Cl)cc(Cl)c1O` [BITHIONOL], for which the IC50 entry was “Not Active”.

As for `O=C1OC2(c3ccc(O)cc3Oc3cc(O)ccc32)c2ccccc21` [FLUORESCEIN], the IC50 entry is given as “Not Active”.

System in the next test: not listed separately
In words: DRUGMATRIX: Glutamate, AMPA radioligand binding (ligand: [3H] AMPA). The class given is cell membranes, Rattus norvegicus, Wistar, Cerebral cortex, Membrane. Conditions: Not Active = under 50% inhibition at 10 µM.
For the compound CISPLATIN, the 50% inhibitory concentration (IC50) entry is “Not Active” and the Ki result is listed as “Not Active”.

On to `Oc1c(Cl)cc(Cl)cc1Sc1cc(Cl)cc(Cl)c1O` [BITHIONOL], for which the 50% inhibitory concentration (IC50) result is on record as “Not Active” and the Ki result is “Not Active”.

Consider `O=C1OC2(c3ccc(O)cc3Oc3cc(O)ccc32)c2ccccc21` [FLUORESCEIN], for which the IC50 result was “Not Active” and the inhibition constant (Ki) result was “Not Active”.

System in a further test: not listed separately
In words: DRUGMATRIX: Glutamate, Kainate radioligand binding (ligand: [3H] Kainic acid). The conditions noted are these: Not Active = under 50% inhibition at 10 µM. The class given is cell membranes, Rattus norvegicus, Wistar, Brain, Membrane.
Consider CISPLATIN, for which the IC50 entry is on record as “Not Active” and the Ki result is on record as “Not Active”.

Regarding `Oc1c(Cl)cc(Cl)cc1Sc1cc(Cl)cc(Cl)c1O` [BITHIONOL], the 50% inhibitory concentration (IC50) result is recorded as “Not Active” and the Ki entry is on record as “Not Active”.

Consider `O=C1OC2(c3ccc(O)cc3Oc3cc(O)ccc32)c2ccccc21` [FLUORESCEIN], for which the IC50 entry is reported as “Not Active” and the inhibitory constant (Ki) entry is “Not Active”.

Another test addresses Insulin receptor (Rattus norvegicus, UniProt P15127).
Assay: not given
The class given is cell membranes, Wistar, Liver, Membrane.
Settings: not given
Consider CISPLATIN, for which the IC50 result is recorded as “Not Active” and the inhibition constant Ki entry is reported as “Not Active”.

For the compound `Oc1c(Cl)cc(Cl)cc1Sc1cc(Cl)cc(Cl)c1O` [BITHIONOL], the IC50 result is “Not Active”.

On to `O=C1OC2(c3ccc(O)cc3Oc3cc(O)ccc32)c2ccccc21` [FLUORESCEIN], for which the IC50 result was “Not Active”.

The target of another test is T2, Leukotriene C4 synthase (Cavia porcellus, UniProt A6XA80).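 Note: enzyme inhibition assay of leukotriene C4 synthase, using LTA4 as the substrate; in other assays of this panel Not Active means under 50% inhibition at 10 µM.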
T2 sequence (A6XA80 whole entry): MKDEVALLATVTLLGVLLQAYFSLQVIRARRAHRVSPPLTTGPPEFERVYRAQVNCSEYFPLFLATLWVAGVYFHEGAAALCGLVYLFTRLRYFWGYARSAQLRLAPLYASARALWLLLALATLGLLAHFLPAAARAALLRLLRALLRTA
Briefly: biochemical. The class given is tissue-based, Lung.
Settings: not given
In the case of CISPLATIN, the IC50 entry was “Not Active” and the Ki result is given as “Not Active”.

`Oc1c(Cl)cc(Cl)cc1Sc1cc(Cl)cc(Cl)c1O` [BITHIONOL]: the half-inhibitory concentration (IC50) entry is “Not Active”.

Take `O=C1OC2(c3ccc(O)cc3Oc3cc(O)ccc32)c2ccccc21` [FLUORESCEIN]: the half-maximal inhibitory concentration (IC50) entry is “Not Active”.

A further test concerns the target T3, Neuropeptide Y receptor type 1 (Homo sapiens, UniProt P25929). Note: in other assays of this panel Not Active means under 50% inhibition at 10 µM.
T3 sequence (P25929 whole entry): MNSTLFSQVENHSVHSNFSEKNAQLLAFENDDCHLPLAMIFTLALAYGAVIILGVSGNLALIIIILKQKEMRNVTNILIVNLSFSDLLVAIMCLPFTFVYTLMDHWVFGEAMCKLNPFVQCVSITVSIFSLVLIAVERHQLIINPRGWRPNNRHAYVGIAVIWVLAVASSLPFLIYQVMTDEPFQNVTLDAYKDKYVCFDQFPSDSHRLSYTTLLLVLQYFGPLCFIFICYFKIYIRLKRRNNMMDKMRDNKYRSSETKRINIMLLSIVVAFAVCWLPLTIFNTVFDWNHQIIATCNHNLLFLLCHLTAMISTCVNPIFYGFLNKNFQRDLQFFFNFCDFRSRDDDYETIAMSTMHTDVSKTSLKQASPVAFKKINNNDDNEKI
Assay: not given
Type of test: cell membranes, Membrane. The conditions noted are these: sk-n-mc.
With CISPLATIN, the IC50 entry was “Not Active” and the Ki result is reported as “Not Active”.

In the case of `Oc1c(Cl)cc(Cl)cc1Sc1cc(Cl)cc(Cl)c1O` [BITHIONOL], the half-inhibitory concentration (IC50) result is reported as “Not Active”.

With `O=C1OC2(c3ccc(O)cc3Oc3cc(O)ccc32)c2ccccc21` [FLUORESCEIN], the IC50 result is on record as “Not Active”.

The target in another test is T4, Nitric oxide synthase, inducible (Mus musculus, UniProt P29477).
T4 sequence (P29477 whole entry): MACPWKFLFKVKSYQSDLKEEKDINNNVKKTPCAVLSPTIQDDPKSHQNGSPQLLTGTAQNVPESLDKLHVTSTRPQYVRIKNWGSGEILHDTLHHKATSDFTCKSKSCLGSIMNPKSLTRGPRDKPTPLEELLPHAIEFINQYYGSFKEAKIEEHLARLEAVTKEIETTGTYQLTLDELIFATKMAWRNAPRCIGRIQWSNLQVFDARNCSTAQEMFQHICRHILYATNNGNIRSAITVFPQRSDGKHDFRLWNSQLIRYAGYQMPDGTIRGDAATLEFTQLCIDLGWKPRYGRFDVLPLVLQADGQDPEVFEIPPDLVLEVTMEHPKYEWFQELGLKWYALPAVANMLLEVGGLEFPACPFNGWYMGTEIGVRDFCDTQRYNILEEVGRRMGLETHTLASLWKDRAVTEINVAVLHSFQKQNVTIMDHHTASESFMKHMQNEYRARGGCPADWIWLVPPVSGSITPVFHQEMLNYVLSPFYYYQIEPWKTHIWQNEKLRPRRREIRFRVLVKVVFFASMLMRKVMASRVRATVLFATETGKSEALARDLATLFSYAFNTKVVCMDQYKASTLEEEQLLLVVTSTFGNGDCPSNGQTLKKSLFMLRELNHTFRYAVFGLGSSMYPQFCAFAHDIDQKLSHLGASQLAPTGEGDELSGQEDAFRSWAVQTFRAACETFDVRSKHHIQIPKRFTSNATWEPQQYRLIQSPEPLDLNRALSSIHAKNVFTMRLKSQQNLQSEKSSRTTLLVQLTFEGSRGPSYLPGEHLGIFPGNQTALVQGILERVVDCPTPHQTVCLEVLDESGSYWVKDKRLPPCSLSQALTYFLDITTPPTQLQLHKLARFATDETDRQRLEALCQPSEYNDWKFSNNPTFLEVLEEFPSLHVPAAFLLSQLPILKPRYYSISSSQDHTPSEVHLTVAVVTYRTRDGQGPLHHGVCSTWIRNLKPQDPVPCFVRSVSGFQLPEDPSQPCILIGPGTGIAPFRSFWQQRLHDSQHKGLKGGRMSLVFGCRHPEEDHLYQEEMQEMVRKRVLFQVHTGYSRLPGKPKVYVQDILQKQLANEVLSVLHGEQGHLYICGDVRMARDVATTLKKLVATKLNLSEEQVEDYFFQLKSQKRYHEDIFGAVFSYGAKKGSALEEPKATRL
Assay: not given
On the set-up: species or system Escherichia coli.
Settings: not given
As to CISPLATIN, the IC50 entry is “Not Active” and the inhibitory constant (Ki) result is given as “Not Active”.

Take `Oc1c(Cl)cc(Cl)cc1Sc1cc(Cl)cc(Cl)c1O` [BITHIONOL]: the IC50 entry was “Not Active”.

Take `O=C1OC2(c3ccc(O)cc3Oc3cc(O)ccc32)c2ccccc21` [FLUORESCEIN]: the IC50 result is listed as “Not Active”.

System in the next test: not listed separately
In words: DRUGMATRIX: Phorbol Ester radioligand binding (ligand: [3H] PDBu). The class given is cell membranes, Mus musculus, ICR, Brain, Membrane. Conditions: Not Active = under 50% inhibition at 10 µM.
Turning to CISPLATIN, the IC50 entry is on record as “Not Active” and the inhibitory constant (Ki) result is reported as “Not Active”.

For the compound `Oc1c(Cl)cc(Cl)cc1Sc1cc(Cl)cc(Cl)c1O` [BITHIONOL], the IC50 result is reported as “Not Active” and the Ki entry is recorded as “Not Active”.

For `O=C1OC2(c3ccc(O)cc3Oc3cc(O)ccc32)c2ccccc21` [FLUORESCEIN], the IC50 entry is “Not Active” and the Ki result is “Not Active”.

Another test has as its target cGMP-specific 3',5'-cyclic phosphodiesterase (Homo sapiens, UniProt O76074). In words: DRUGMATRIX: Phosphodiesterase PDE5 enzyme inhibition (substrate: [3H]cGMP + cGMP). The class given is tissue-based, Platelet. The conditions noted are these: platelet; Not Active = under 50% inhibition at 10 µM.
For CISPLATIN, the IC50 result is listed as “Not Active” and the Ki entry is “Not Active”.

For the compound `Oc1c(Cl)cc(Cl)cc1Sc1cc(Cl)cc(Cl)c1O` [BITHIONOL], the IC50 result is “Not Active”.

Regarding `O=C1OC2(c3ccc(O)cc3Oc3cc(O)ccc32)c2ccccc21` [FLUORESCEIN], the IC50 result was “Not Active”.

The target of a further test is T5, Neutrophil elastase (Homo sapiens, UniProt P08246).
T5 sequence (P08246 whole entry): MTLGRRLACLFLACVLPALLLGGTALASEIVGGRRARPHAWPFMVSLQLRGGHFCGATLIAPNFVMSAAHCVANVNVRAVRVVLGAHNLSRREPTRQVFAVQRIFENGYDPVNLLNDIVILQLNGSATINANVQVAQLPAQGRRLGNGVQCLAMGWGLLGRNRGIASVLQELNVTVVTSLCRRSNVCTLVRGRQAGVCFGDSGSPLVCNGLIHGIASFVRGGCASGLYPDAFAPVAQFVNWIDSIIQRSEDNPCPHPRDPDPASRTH
Assay: not given
The class given is tissue-based.
Settings: not given
Consider CISPLATIN, for which the IC50 entry was “Not Active” and the inhibition constant Ki entry is “Not Active”.

For `Oc1c(Cl)cc(Cl)cc1Sc1cc(Cl)cc(Cl)c1O` [BITHIONOL], the IC50 result is given as “Not Active”.

As for `O=C1OC2(c3ccc(O)cc3Oc3cc(O)ccc32)c2ccccc21` [FLUORESCEIN], the IC50 result is on record as “Not Active”.

A further test has as its target Estrogen receptor beta (Homo sapiens, UniProt Q92731). Note: in other assays of this panel Not Active means under 50% inhibition at 10 µM.
Assay: not given
The conditions noted are these: sf9.
Take CISPLATIN: the IC50 entry is “Not Active” and the Ki entry was “Not Active”.

In the case of `Oc1c(Cl)cc(Cl)cc1Sc1cc(Cl)cc(Cl)c1O` [BITHIONOL], the 50% inhibitory concentration (IC50) entry is “Not Active”.

Turning to `O=C1OC2(c3ccc(O)cc3Oc3cc(O)ccc32)c2ccccc21` [FLUORESCEIN], the half-maximal inhibitory concentration (IC50) result is recorded as “Not Active”.
